Reference: patent US9221875B2, “Amphiphilic peptides for treatment of keratitis” (Agency for Science, Technology and Research, priority 2013, dated 2015)
Converted amounts (≈) assume the structure as drawn. Where two headings read alike, the source gives them in different places. Marks after values point to notes of the source that are not given here. Peptide text beside a SMILES is read from it.

What was measured:
[1] = system: rabbit red blood cells; format: cell-based; details: red cells of rabbit, 1 h
[2] = system: S. aureus; details: 18 h
[3] = system: C. albicans; details: 42 h
[4] = system: E. coli and S. aureus; experiment: FE-SEM imaging of treated bacteria (Example 1); format: cell-based, Escherichia coli, Staphylococcus aureus; details: 2 h treatment
Procedure: E. coli suspension at ˜3×10^8 CFU ml^−1 (100 μL) was incubated with an equal volume of broth containing 20% (by volume) of water and a lethal dose (250 mg L^−1) of a representative peptide in a 96 well-plate for 2 h. Eight replicates of each condition was pooled into a microfuge tube, pelleted down at 5000×g for 5 min, and rinsed twice with PBS. The samples were then fixed with 4% formaldehyde at room temperature for 15 min, followed by rinsing with DI water. Dehydration of the cells was performed using a series of graded ethanol solutions (35, 50, 75, 90, 95 and 100%). The samples were allowed to air-dry, mounted on carbon table, and sputter coated with platinum for imaging with a FE-SEM setup (JEOL JSM-7400F, Japan).

[5] = system: P. aeruginosa; details: 18 h
[6] = system: S. aureus; details: 18 h; remark: listed apart in the source
[7] = system: Methicillin-resistant S. aureus; details: clinical isolate
[8] = system: C. albicans
[9] = system: F. solani; format: cell-based; details: 24 h
Procedure: The MICs of peptides were determined against the fungi C. albicans (American Type Culture Collection, ATCC) and F. solani (ATCC) by the broth microdilution method. […] F. solani, were cultured on sabouraud dextrose agar plates in incubator at 37° C. To collect conidia following incubation, conidia of F. solani species were harvested and standardized to 1×10^8 spores/ml before performing the experiments. Sabouraud dextrose broth (90 μL) was added to the wells of culture plates. […] The plates were incubated at 37° C. and examined macroscopically after 24 h for the growth of F. solani. Appropriate control wells without any treatment were included in the study. Peptide were considered to be active if the wells appeared clear without any visible growth of F. solani, and the results were expressed as MIC. The assay was performed in four replicates for each concentration.

[10] = system: 5 microorganisms tested (S. epidermidis, S. aureus, E. coli, P. aeruginosa, C. albicans); experiment: Mean MIC over the panel and selectivity index (Example 1); format: cell-based
Procedure: Red blood cells suspension incubated with PBS was used as negative control.

[11] = system: E. coli; details: 18 h
[12] = system: Vancomycin-resistant Enterococci; details: clinical isolate
[13] = system: E. coli; details: 18 h; remark: listed apart in the source
[14] = system: S. aureus biofilms; format: cell-based, Staphylococcus aureus; details: 24 h; for killing of S. aureus residing in biofilms: MIC, 4×MIC, 8×MIC
Procedure: The wells were then rinsed once with 100 μL of PBS to remove planktonic cells and loosely attached cells, and replenished with 100 μL of fresh broth. Biofilm formation was allowed to proceed up to 6-8 days with daily rinsing and media changes before use in experiments. […] Subsequently, the solutions were removed and 120 μL of activated XTT solution was added into each well. […] Relative cell viability was expressed as [(A490-[…])sample/(A490-[…])control]×100%.

[15] = system: S. epidermidis; details: 18 h
[16] = system: S. aureus biofilms; experiment: Biofilm biomass, crystal violet staining; format: cell-based, Staphylococcus aureus; details: MIC, 4×MIC, 8×MIC, 24 h
Procedure: The biomass of the biofilms was estimated by a crystal violet staining assay. Briefly, the formed biofilms were first treated with the peptides for 24 h as described above. After aspirating the culture medium, the biofilms were washed once with PBS, fixed with methanol for 15 min at room temperature and stained with 100 μL of 0.1% (weight by volume) crystal violet for 10 min. The excess crystal violet dye was removed by rinsing the wells with DI water for five times. The dye that is associated with the biofilm was extracted using 100 μL of 33% glacial acetic acid per well and quantified by measuring the absorbance at a wavelength of 570 nm using a microplate reader (TECAN, Switzerland). The relative amount of biomass remaining after peptide treatment was expressed as a percentage of the control treated with broth containing 10% (by volume) of water. Data represent mean±standard deviations of four replicates per concentration.

[17] = system: C. albicans keratitis; experiment: Contact lens-associated C. albicans keratitis mouse model
[18] = system: P. aeruginosa; details: 18 h; remark: listed apart in the source
[19] = system: C. neoformans; experiment: MBC against clinical isolates; format: cell-based; details: clinical isolate
[20] = system: A. baumanni
[21] = system: trypsin and proteinase K; format: in vitro ADME
Procedure: One of the major factors limiting the clinical utility of AMPs lies in their instability to rapid degradation by proteases which are present abundantly in biological fluids and/or secreted by microorganisms. In order to evaluate the proteolytic stability of the designed β-sheet forming peptides, the D- and L-isoforms of the n=2 peptide sequence (IK8-all D or IK8-all L, respectively) were treated with the broad spectrum serine proteases, trypsin and proteinase K, for 6 h and evaluated their antimicrobial activities against S. aureus, E. coli and P. aeruginosa. […] The structural integrity of synthetic peptides following treatment with both proteases was also evaluated using MALDI-TOF mass spectroscopy. […] The cleavage sites of both enzymes for the IK8-all L peptide are illustrated in FIG. 19a with the mass spectra peaks assigned to the major fragments.

[22] = system: P. aeruginosa; experiment: MBC against clinical isolates; format: cell-based; details: clinical isolate
[23] = system: S. epidermidis; details: 18 h; remark: listed apart in the source
[24] = Acute in vivo toxicity, intravenous tail vein injection; details: mouse, mice
Procedure: For the β-sheet forming peptides to qualify as suitable therapeutic candidates, their antimicrobial activities should be considered in the light of their selectivity for microbial cell membranes so as to minimize toxicities towards mammalian cells. […] The selectivity indices (SIs) of the peptides were further evaluated as a comparison of the safety and efficacies of the different peptide sequences (Table 2). SIs of the various peptides were calculated as the ratio of the HC10 value (defined as the lowest peptide concentration that induces 10% or more haemolysis) to the GM (geometric mean MICs of the 5 microbial strains tested). […] The acute in vivo toxicity testing was performed via intravenous tail vein injection of solutions containing representative peptides of n=2 [(IRIK)2-NH2 (SEQ ID NO: 17)] and n=3 [(IRVK)3-NH2 (SEQ ID NO: 22)] repeat units in mice.

[25] = system: 5 microorganisms tested (S. epidermidis, S. aureus, E. coli, P. aeruginosa, C. albicans); experiment: Mean MIC over the panel and selectivity index (Example 2)
[26] = system: clinically isolated Mycobacterium tuberculosis
[27] = system: LPS-stimulated NO production in NR8383 rat macrophage cell line; experiment: Endotoxin neutralization assay (Griess nitrite); format: cell-based; details: 125 mg L^−1 peptide, 100 ng mL^−1 LPS, 18 h
Procedure: Untreated cells and cells that were stimulated with LPS alone served as the […] controls, respectively. The amount of NO produced was estimated by quantifying the concentration of the stable NO metabolite nitrite in the isolated supernatant fractions using the Griess reagent (1% sulphanilamide, 0.1% N-1-napthylethylenediamine dihydrochloride, 5% phosphoric acid) according to the manufacturer's protocol. The absorbance was measured at 540 nm and nitrite concentrations were determined using a standard reference curve prepared from known concentrations of NaNO2 solutions.

[28] = system: S. aureus; format: cell-based, Staphylococcus aureus; details: passage 20
[29] = topical eye drops, peptides 3000 mg/L, amphotericin B 1000 mg/L

CC[C@H](C)[C@H](N)C(=O)N[C@@H](CCCNC(=N)N)C(=O)N[C@H](C(=O)N[C@@H](CCCCN)C(=O)N[C@H](C(=O)N[C@@H](CCCNC(=N)N)C(=O)N[C@H](C(=O)N[C@@H](CCCCN)C(N)=O)[C@@H](C)CC)[C@@H](C)CC)[C@@H](C)CC [(IRIK)2-NH2] (H-IRIKIRIK-NH2; N-terminus assumed)
HC10, haemolysis concentration 10%: lowest peptide concentration that induces ≧10% haemolysis [1]: 2000 mg/L
MIC S. aureus [2]: 62.5 µg/mL (≈ 60.2 µM)
MIC C. albicans [3]: 3.9 µg/mL (≈ 3.76 µM)
surface morphology under FE-SEM [4]: rough and uneven
MIC P aeruginosa [5]: 31.3 µg/mL (≈ 30.1 µM)
MIC S. aureus [6]: 62.5 µg/mL (≈ 60.2 µM)
MBC Methicillin-resistant S. aureus [7]: 31.3 µg/mL (≈ 30.1 µM)
MIC C. albicans [8]: 3.9 µg/mL (≈ 3.76 µM)
MIC F. solani [9]: 31.3 µg/mL (≈ 30.1 µM)
GM, geometric mean of MIC values for the 5 microorganisms tested [10]: 23.4 µg/mL
MIC E. coli [11]: 15.6 µg/mL (≈ 15 µM)
MBC Vancomycin-resistant Enterococci [12]: 15.6 µg/mL (≈ 15 µM)
MIC E. coli [13]: 15.6 µg/mL (≈ 15 µM)
killing of S. aureus residing in biofilms [14]: dose-dependent killing
cell viability of S. aureus in biofilms ([14]; Staphylococcus aureus, 4 ×MIC): less than 10%
MIC S. epidermidis [15]: 3.9 µg/mL (≈ 3.76 µM)
amount of biomass in the treated biofilms [16]: reduced in a dose-dependent manner
fungal cells eradicated from the biofilms compared to the untreated control group ([17]; C. albicans counts in mice cornea, agar plating): ~90%
depth of hyphal invasion into the cornea, PAS histology [17, 29]: reduced the maximal depth of hyphal invasion
resolution of the keratitis infection (eye appearance) [17, 29]: significant resolution of the keratitis infection
clinical scores of mice corneas (slit lamp) ([17]; topical eye drops, peptides 3000 mg/L, amphotericin B 1000 mg/L, P<0.01): significantly lower than that in the control group
MIC P. aeruginosa [18]: 31.3 µg/mL (≈ 30.1 µM)
MBC C. neoformans [19]: 7.8 µg/mL (≈ 7.51 µM)
MBC A. baumanni [20]: 125 µg/mL (≈ 120 µM)
antimicrobial activity after protease treatment [21]: complete loss in bacterial inhibitory activities
structural integrity after protease treatment, MALDI-TOF MS [21]: degradation of the intact peptide
MBC P. aeruginosa [22]: 7.8 µg/mL (≈ 7.51 µM)
MIC S. epidermidis [23]: 3.9 µg/mL (≈ 3.76 µM)
LD50 [24]: 35.2 mg/kg
GM, geometric mean of MIC values for the 5 microorganisms tested [25]: 23.4 µg/mL

CC[C@H](C)[C@H](N)C(=O)N[C@@H](CCCNC(=N)N)C(=O)N[C@H](C(=O)N[C@@H](CCCCN)C(=O)N[C@H](C(=O)N[C@@H](CCCNC(=N)N)C(=O)N[C@H](C(=O)N[C@@H](CCCCN)C(=O)N[C@H](C(=O)N[C@@H](CCCNC(=N)N)C(=O)N[C@H](C(=O)N[C@@H](CCCCN)C(N)=O)C(C)C)[C@@H](C)CC)C(C)C)[C@@H](C)CC)C(C)C [(IRVK)3-NH2] (H-IRVKIRVKIRVK-NH2; N-terminus assumed)
HC10, haemolysis concentration 10%: lowest peptide concentration that induces ≧10% haemolysis [1]: >125^e) mg L^−1
MIC S. aureus [2]: 31.3 µg/mL (≈ 20.8 µM)
MIC C. albicans [3]: 125 µg/mL (≈ 82.9 µM)
surface morphology under FE-SEM [4]: rough and uneven
MIC P aeruginosa [5]: 62.5 µg/mL (≈ 41.5 µM)
MIC S. aureus [6]: 31.3 µg/mL (≈ 20.8 µM)
MBC Methicillin-resistant S. aureus [7]: 15.6 µg/mL (≈ 10.4 µM)
MIC C. albicans [8]: 125 µg/mL (≈ 82.9 µM)
GM, geometric mean of MIC values for the 5 microorganisms tested [10]: 47.3 µg/mL
MIC E. coli [11]: 15.6 µg/mL (≈ 10.4 µM)
MBC Vancomycin-resistant Enterococci [12]: 7.8 µg/mL (≈ 5.18 µM)
MIC E. coli [13]: 15.6 µg/mL (≈ 10.4 µM)
killing of S. aureus residing in biofilms [14]: dose-dependent killing
MIC S. epidermidis [15]: 2.0 µg/mL (≈ 1.33 µM)
amount of biomass in the treated biofilms [16]: reduced in a dose-dependent manner
MIC M. tuberculosis ([26]; strain number 1140): 15.6 µg/mL (≈ 10.4 µM)
MIC M. tuberculosis ([26]; strain number 1146): >31.3 µg/mL
MIC P. aeruginosa [18]: 62.5 µg/mL (≈ 41.5 µM)
MBC C. neoformans [19]: 15.6 µg/mL (≈ 10.4 µM)
MBC A. baumanni ([20]; clinical isolate, multidrug resistant): 15.6 µg/mL (≈ 10.4 µM)
nitrite concentration, LPS-stimulated NO production [27]: reduced to the control level
MBC P. aeruginosa [22]: 15.6 µg/mL (≈ 10.4 µM)
MIC S. epidermidis [23]: 2.0 µg/mL (≈ 1.33 µM)
LD50 [24]: 35.2 mg/kg
GM, geometric mean of MIC values for the 5 microorganisms tested [25]: 47.3 µg/mL

CC1(C)S[C@@H]2[C@H](NC(=O)Cc3ccccc3)C(=O)N2[C@H]1C(=O)O [penicillin G, reference compound]
MICn/MIC0, fold increase in MIC [28]: 32
